Assay [1] has as its system linear viral DNA (circularization). Type of assay: biochemical, HIV-1. The procedure: The chronically HIV-1 infected Molt IIIB human T cell line (HTLV IIIB virus strain) was the source of virus for cell-free infections. This human T cell line constitutively produces a low level of the HTLV-111B strain of HIV-1. Culture supernatant containing a high concentration of virus was prepared by incubating 300×10^6 Molt IIIB cells in 50 ml fresh RPMI 1640 medium containing 20% fetal calf serum and 10 ng of phorbol 12-myristate 13-acetate per ml for 20-24 hours. […] Cytoplasmic extracts (3 ml) were prepared 4-4.5 hours post-infection, by a modification of the procedure of Brown et al., Cell 49: 342-356 (1987).
At specified times after infection, cells were washed twice with buffer K (20 mM Hepes, pH 7.4, 150 mM KCl, 5 mM MgCl2, 1 mM dithiothreitol, […]) and then lysed at a concentration of 33×10^6 cells per ml in the same buffer containing 0.025% digitonin or 0.025% Triton X-100. Cells were extracted for 10 minutes at room temperature, and the lysate was centrifuged at 1000×g for 3 minutes, and is referred to as "cytoplasmic extract". Cytoplasmic extract was the source of viral DNA for analyses in the assays described below. The pellet from the initial low-speed centrifugation contained cell debris and intact nuclei and is called the "nuclear pellet". Cell extracts from uninfected SupT1 cells were prepared in the same manner.
Viral DNA present in cytoplasmic extracts was deproteinated by incubation with proteinase K (1 mg/ml)/10 mM EDTA/0.5% SDS for 1 hour at 55° C. Samples were extracted successively with phenol/chloroform [1:1 (vol/vol)] and chloroform. DNA was ethanol-precipitated, washed with 70% ethanol, resuspended in 10 mM Tris.HCI (pH 7.4), and treated with RNase A (20 μpg/ml)for 1 hour at […]. before analysis by agarose gel electrophoresis and Southern blotting.
DNA samples were layered on 0.8% agarose gels and electrophoresed at 1 V/cm for 15 hour in Tris/acetate/EDTA buffer. After electrophoresis, DNA was blotted by capillary action onto nitrocellulose (0.45 μm, Schleicher & Schuell).
Cell extracts were prepared from cells four to five hours after infection with HIV-1, using the above-described methods to yield fully functional viral preintegration complexes. […] In all cases, a HIV-1 LTR-containing DNA fragment was used as a hybridization probe. Therefore, only LTR-containing DNA fragments are detected. […] Lane 5: Unintegrated viral DNA prepared by Hirt extraction of SupT1 cells infected 24 hours earlier with concentrated HIV-1. […] Viral DNA was purified from extracts incubated with 1 mM ATP for 15 minutes (lanes 1 and 4), with 1 mM ATP for 45 minutes (lanes 3 and 6), or with 1 mM ATPγS for 45 minutes (lanes 2 and 5). Lanes 1-3: uncut viral DNA; lanes 4-6: viral DNA was cut with SalI prior to electrophorosis. Lane 7: linear viral DNA, prepared from untreated extracts was digested with SalI prior to electrophorosis. Lane 8: unintegrated viral DNA prepared by Hirt extraction of infected cells, as described with respect to FIG. 14, digested with SalI prior to electrophoresis. […] Lanes 1-3. Viral DNA prepared from extracts treated with 1 mM ATP for 15 minutes, 30 minutes and 45 minutes, respectively. Lane 4: Viral DNA prepared from extract treated with 1 mM ATPγS for 45 minutes. Lanes 5-7: products of reactions shown in lanes 1-3, respectively, digested with SalI and PstI prior to electrophoresis. Lane 8: SalI, PstI digestion of viral DNA prepared from extract treated with 1 mM ATP for 90 minutes. Lane 9: SalI, PstI digestion of reaction products shown in lane 4. Lane 10: SalI, PstI digestion of unintegrated viral DNA prepared by Hirt extraction of infected cells.

For assay [2], the system named is purified linear viral DNA. The assay is described as follows: Circularization of purified linear viral DNA in cytoplasmic extracts of uninfected SupT1 cells. Type of assay: biochemical, HIV-1. Particulars: 1 mM, 37° C., 45 min. The procedure:
Further evidence of a role for host proteins in the formation of the 1-LTR and simple 2-LTR circular forms of viral DNA was obtained by testing the ability of uninfected cell extracts to mediate the circularization of purfied viral DNA. Linear viral DNA was prepared from cytoplasmic extracts of uninfected cells by SDS-proteinase K treatment and phenol extraction. The purfied DNA was added to cytoplasmic extracts prepared form uninfected SupT1 cells, in the presence or absence of added ATP.
Linear viral DNA was purified from cytoplasmic extracts of cells 4 hours post-infection as described above. In FIG. 22, a purified linear viral DNA was added to cytoplasmic extracts from uninfected SupT1 cells and incubated at 37° C. for 45 minutes. The uninfected SupT1 cells used for the preparation of extracts were either untreated (lanes 3-11) or cultured in the presence of 10 ng/ml phorbol 12-myristate 13-acetate for six hours prior to extraction (lane 2). […] Lanes 2-11: reaction products following incubation of purified linear viral DNA in uninfected extracts containing 1 mM ATP (lanes 2 and 3), nothing added (lane 4), 1 mM dATP (lane 5), 1 mM UTP (lane 6), 1 mM CTP (lane 7), 1 mM GTP (lane 8), 1 mM ATPγS (lane 9), or 1 mM ADP (lane 10). Lane 11: uninfected SupT1 cell extract was treated with proteinase K for 10 minutes at 37° C., then linear viral DNA was added and incubation continued for 45 minutes. In FIG. 23, lanes 1, 2, 4 and 5: purified linear viral DNA was incubated with T4 DNA ligase (lane 1), T4 polynucleotide kinase and T4 DNA ligase (lane 2), Klenow fragment of E. coli DNA polymerase I and T4 DNA ligase […], or Klenow fragment, T4 polynucleotide kinase, and T4 DNA ligase (lane 4). Lanes 3 and 6: in vitro circularization reaction products generated in cell extracts, included as size standards. Lane 3: cytoplasmic extracts from infected cells were incubated with […] for 45 minutes; lane 6: purified linear viral DNA was incubated with cytoplasmic extract from uninfected SupT1 cells in the presence of 1 mM ATP for 45 minutes. The possibility that a host DNA ligase was responsible for the formation of the simple 2-LTR circles was examined by testing the ability of phage T4 ligase to catalyze the circularization of linear viral DNA. […] Restriction endonuclease analysis of the reaction products formed in the presence of both Klenow fragment and T4 DNA ligase confirmed the formation of new 2-LTR junctions (not shown). […] This observation is consistent with previous reports that linear viral DNA prepared from cells infected with the murine leukemia virus [Fujiwara and Mizuuchi, Cell, 54:497-504 (1988) and HIV-1 [Pauza, Virology, 179:886-887 (1990)] consists of a mixture of molecules that are either blunt-ended or recessed by two nucleotides at each 3'-terminus. The removal of the two terminal nucleotides is mediated by the viral integrase as a necessary step in the process of integration [Roth et al., Cell 58: 47-54 (1989)]. […] This would explain the requirement of DNA polymerase for the subsequent joining of the ends of viral DNA by DNA ligase.

SMILES strings stand for the structures.

From patent US5759768A, “Assays for factors affecting circularization of DNA, assays for factors affecting DNA integration, factors, and uses thereof” (priority 1995, dated 1998) come the findings set out here.

With `Nc1ncnc2c1ncn2[C@@H]1O[C@H](COP(=O)(O)OP(=O)(O)OP(=O)(O)O)[C@@H](O)[C@H]1O` [ATP, adenosine triphosphate], in assay [1] (1 mM, 37° C., 45 min, no target DNA), the “formation of circular viral DNA species” value is recorded as “formation of two viral DNA species that migrated more slowly than the linear form of viral DNA”. Further, in assay [1] (5 mM ATP), the 1-LTR circle formation entry is on record as “considerable” and the “formation of 2-LTR circles” value is listed as “completely inhibited”. In assay [1] (37° C., 45 or 90 min), the “ATP concentration of peak 1-LTR circle formation” value amounted to 2 mM and the “optimal ATP concentration for formation of 2-LTR circles” value turned out to be 1 mM. Further, in assay [1] (table), the “1-LTR [ATP] optimum” value is 2 mM and the “Autointegration [ATP] optimum” value is on record as 1 mM. For the same compound, in assay [2], the “1-LTR circles from purified linear viral DNA” value is given as “The most abundant of the new DNA forms comigrated with the 1-LTR circular DNA molecules”; the “2-LTR circles from purified linear viral DNA” value was “a small amount of product migrating as 2-LTR circles could also be detected”; the “circularization of purified linear viral DNA” value is “New, slowly migrating DNA species were detected”.
For the compound `Nc1ncnc2c1ncn2[C@@H]1O[C@H](COP(=O)(O)OP(=O)(O)OP(O)(O)=S)[C@@H](O)[C@H]1O` [ATPγS], in assay [1] (1 mM, 37° C., 45 min), the “induction of 1-LTR circular form” value is “unable to induce detectable amounts of the 1-LTR circular forms” and the “induction of 2-LTR circles” value was “induced the formation of 2-LTR circles”. Besides, in assay [1] (1 mM, 45 min), the “1-LTR circles (restriction analysis)” value is recorded as “no detectable 1-LTR circles”, the “origin of 2-LTR circles (SalI/PstI digestion)” value is listed as “entirely the products of autointegration” and the “simple 2-LTR circles (SalI/PstI digestion)” value is reported as “absence of simple 2-LTR circles among the reaction products”. Besides, the “type of circular viral DNA formed” value in assay [1] (1 mM, 45 min, restriction enzyme analysis) was “exclusively of the 2-LTR type”. In assay [2], the “ability to substitute for ATP in formation of simple 2-LTR circles” value is “None of the other nucleoside triphosphates tested, nor ATPγS, was able to substitute for ATP” and the “circularization of purified linear viral DNA” value is “failed to induce the circularization of purified linear viral DNA”.
